Columns and labels:
[1] = tested on: Japanese bulrush; experiment: Test Example 1: herbicidal activity, application before weed generation under submerged conditions (Table 16, symbol B); format: in vivo, Japanese bulrush (Schoenoplectus juncoides); conditions: for Herbicidal effect on B: Japanese bulrush (grade 0-5): 320 g/ha applied herbicide
In short: (§1)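 Emulsion formulation, water-diluted to set dose, was put onto the flooded surface (4 cm depth, alluvial soil) the same day weeds were sown and 2.5-leaf rice transplanted. After 3 weeks at 25-30 °C under glass, each species was rated 0 (≤5% kill) to 5 (≥90% kill).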

[2] = tested on: late watergrass; experiment: Test Example 1: herbicidal activity, application before weed generation under submerged conditions (Table 16, symbol A); format: in vivo, late watergrass (Echinochloa oryzicola); conditions: for Herbicidal effect on A: late watergrass (grade 0-5): 320 g/ha applied herbicide
In short: as §1

[3] = tested on: rice flat sedge; experiment: Test Example 3: herbicidal effect by foliage application, Wagner pot (Table 18, symbol E); format: in vivo, rice flat sedge (Cyperus iria); conditions: for herbicidal effect on E: rice flat sedge: amount of applied herbicide 320 g/ha
In short: (§2)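 Plants were sown in alluvial soil held under 0.1–0.5 cm standing water and grown 14 days in a greenhouse at 25–30 °C. An emulsifiable formulation, water-diluted to the set dose, was then sprayed onto the foliage, and effects were scored three weeks later using previously defined criteria.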

[4] = tested on: Japanese bulrush; experiment: Test Example 2: herbicidal activity, application during weed generation under submerged conditions (Table 17, symbol B); format: in vivo, Japanese bulrush (Schoenoplectus juncoides); conditions: AAH 320 g/ha; application during weed generation, submerged conditions
In short: (§3)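 Wagner pot, alluvial soil, 4 cm flood; mixed sowing of all species; greenhouse 25° C.–30° C. Emulsifiable formulation, water-diluted to predetermined dose, applied to paddy water at 1–2 leaf stage. Effect rated at 3 wk using the earlier test's scoring criteria.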

[5] = tested on: Chinese sprangletop; experiment: Test Example 3: herbicidal effect by foliage application, Wagner pot (Table 18, symbol D); format: in vivo, chinese sprangletop (Leptochloa chinensis); conditions: for herbicidal effect on D: Chinese sprangletop: amount of applied herbicide 320 g/ha
In short: as §2

[6] = tested on: oval-leafed pondweed; experiment: Test Example 1: herbicidal activity, application before weed generation under submerged conditions (Table 16, symbol C); format: in vivo, oval-leafed pondweed (Monochoria vaginalis); conditions: for Herbicidal effect on C: oval-leafed pondweed (grade 0-5): 320 g/ha applied herbicide
In short: as §1

[7] = tested on: oval-leafed pondweed; experiment: Test Example 2: herbicidal activity, application during weed generation under submerged conditions (Table 17, symbol C); format: in vivo, oval-leafed pondweed (Monochoria vaginalis); conditions: AAH 320 g/ha; application during weed generation, submerged conditions
In short: as §3

[8] = tested on: barnyard grass; experiment: Test Example 3: herbicidal effect by foliage application, Wagner pot (Table 18, symbol H); format: in vivo, barnyard grass (Echinochloa crus-galli); conditions: for herbicidal effect on H: barnyard grass: amount of applied herbicide 320 g/ha
In short: as §2

[9] = tested on: late watergrass; experiment: Test Example 2: herbicidal activity, application during weed generation under submerged conditions (Table 17, symbol A); format: in vivo, late watergrass (Echinochloa oryzicola); conditions: AAH 320 g/ha; application during weed generation, submerged conditions
In short: as §3

[10] = tested on: green foxtail; experiment: Test Example 5: herbicidal effect by foliage application, plastic box (Table 20, symbol G); format: in vivo, green foxtail (Setaria viridis); conditions: foliage application, 320 g/ha, three weeks after application
In short: (§4)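 Foliar spray test: emulsion formulation diluted in water to a set application rate, sprayed onto 14-day-old plants raised in diluvial soil at 25° C to 30° C under glass. Both herbicidal effect and crop effect rated visually three weeks later.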

[11] = tested on: persian speedwell; experiment: Test Example 5: herbicidal effect by foliage application, plastic box (Table 20, symbol R); format: in vivo, Persian speedwell (Veronica persica); conditions: foliage application, 320 g/ha, three weeks after application
In short: as §4

[12] = tested on: blackgrass; experiment: Test Example 5: herbicidal effect by foliage application, plastic box (Table 20, symbol J); format: in vivo, blackgrass (Alopecurus myosuroides); conditions: foliage application, 320 g/ha, three weeks after application
In short: as §4

[13] = tested on: windgrass; experiment: Test Example 5: herbicidal effect by foliage application, plastic box (Table 20, symbol L); format: in vivo, windgrass (Apera spica-venti); conditions: foliage application, 320 g/ha, three weeks after application
In short: as §4

[14] = tested on: wild oat; experiment: Test Example 5: herbicidal effect by foliage application, plastic box (Table 20, symbol I); format: in vivo, wild oat (Avena fatua); conditions: foliage application, 320 g/ha, three weeks after application
In short: as §4

[15] = tested on: velvetleaf; experiment: Test Example 5: herbicidal effect by foliage application, plastic box (Table 20, symbol M); format: in vivo, velvetleaf (Abutilon theophrasti); conditions: foliage application, 320 g/ha, three weeks after application
In short: as §4

[16] = tested on: southern crabgrass; experiment: Test Example 5: herbicidal effect by foliage application, plastic box (Table 20, symbol F); format: in vivo, southern crabgrass (Digitaria ciliaris); conditions: foliage application, 320 g/ha, three weeks after application
In short: as §4

[17] = tested on: lambsquarters; experiment: Test Example 5: herbicidal effect by foliage application, plastic box (Table 20, symbol O); format: in vivo, lambsquarters (Chenopodium album); conditions: foliage application, 320 g/ha, three weeks after application
In short: as §4

[18] = tested on: Italian ryegrass; experiment: Test Example 5: herbicidal effect by foliage application, plastic box (Table 20, symbol K); format: in vivo, Italian ryegrass (Lolium multiflorum); conditions: foliage application, 320 g/ha, three weeks after application
In short: as §4

[19] = tested on: barnyard grass; experiment: Test Example 5: herbicidal effect by foliage application, plastic box (Table 20, symbol H); format: in vivo, barnyard grass (Echinochloa crus-galli); conditions: foliage application, 320 g/ha, three weeks after application
In short: as §4

[20] = amount of applied herbicide 320 g/ha

| SMILES | Herbicidal effect on B: Japanese bulrush (grade 0-5) [1] | Herbicidal effect on A: late watergrass (grade 0-5) [2] | herbicidal effect on E: rice flat sedge [3] | herbicidal effect rating, B: Japanese bulrush [4] | herbicidal effect on D: Chinese sprangletop [5] | Herbicidal effect on C: oval-leafed pondweed (grade 0-5) [6] | herbicidal effect rating, C: oval-leafed pondweed [7] | herbicidal effect on H: barnyard grass [8] | herbicidal effect rating, A: late watergrass [9] | also measured |
| --- | --- | --- | --- | --- | --- | --- | --- | --- | --- | --- |
| Cc1nn(C)c(=O)c(-c2c(-c3ccc(C[S+](C)[O-])cc3)sc3ccc(F)cc23)c1O (stereo not shown) [2-332] | 0 (Herbicidal rate of 5% or less (almost no effect)) | 2 (Herbicidal rate of 20% or more and less than 40%) | 3 (Herbicidal rate of 40% or more and less than 70%) | 0 (Herbicidal rate of 5% or less (almost no effect)) | 3 (Herbicidal rate of 40% or more and less than 70%) | 0 (Herbicidal rate of 5% or less (almost no effect)) | 0 (Herbicidal rate of 5% or less (almost no effect)) | 5 (Herbicidal rate of 90% or more (almost completely withered)) | 3 (Herbicidal rate of 40% or more and less than 70%) | – |
| CCCC(=O)Oc1c(C)nn(C)c(=O)c1-c1c(-c2ccc(OC)c(Cl)c2)sc2ccc(F)cc12 [2-371] | 3 (Herbicidal rate of 40% or more and less than 70%) | 3 (Herbicidal rate of 40% or more and less than 70%) | 4 (Herbicidal rate of 70% or more and less than 90%) | 3 (Herbicidal rate of 40% or more and less than 70%) | 4 (Herbicidal rate of 70% or more and less than 90%) | 4 (Herbicidal rate of 70% or more and less than 90%) | 4 (Herbicidal rate of 70% or more and less than 90%) | 4 (Herbicidal rate of 70% or more and less than 90%) | 0 (Herbicidal rate of 5% or less (almost no effect)) | – |
| CCCC(=O)Oc1c(C)nn(C)c(=O)c1-c1c(-c2ccccc2OC)sc2cc(C)c(C)cc12 [5-091] | – | – | – | 2 (Herbicidal rate of 20% or more and less than 40%) | – | – | 3 (Herbicidal rate of 40% or more and less than 70%) | – | 3 (Herbicidal rate of 40% or more and less than 70%) | herbicidal effect on green foxtail (G) [10]: 3 (Herbicidal rate of 40% or more and less than 70%); herbicidal effect on persian speedwell (R) [11]: 3 (Herbicidal rate of 40% or more and less than 70%); herbicidal effect on blackgrass (J) [12]: 4 (Herbicidal rate of 70% or more and less than 90%); Herbicidal effect, B: Japanese bulrush [1, 20]: 3 (Herbicidal rate of 40% or more and less than 70%); herbicidal effect on windgrass (L) [13]: 4 (Herbicidal rate of 70% or more and less than 90%); Herbicidal effect, A: late watergrass [2, 20]: 3 (Herbicidal rate of 40% or more and less than 70%); herbicidal effect on rice flat sedge (E) ([3]; 320 g/ha): 3 (Herbicidal rate of 40% or more and less than 70%); herbicidal effect on wild oat (I) [14]: 0 (Herbicidal rate of 5% or less (almost no effect)); herbicidal effect on velvetleaf (M) [15]: 4 (Herbicidal rate of 70% or more and less than 90%); herbicidal effect on southern crabgrass (F) [16]: 2 (Herbicidal rate of 20% or more and less than 40%); herbicidal effect on Chinese sprangletop (D) ([5]; 320 g/ha): 4 (Herbicidal rate of 70% or more and less than 90%); herbicidal effect on lambsquarters (O) [17]: 3 (Herbicidal rate of 40% or more and less than 70%); herbicidal effect on Italian ryegrass (K) [18]: 4 (Herbicidal rate of 70% or more and less than 90%); Herbicidal effect, C: oval-leafed pondweed [6, 20]: 3 (Herbicidal rate of 40% or more and less than 70%); herbicidal effect on barnyard grass (H) ([8]; 320 g/ha): 4 (Herbicidal rate of 70% or more and less than 90%); herbicidal effect on barnyard grass (H) [19]: 3 (Herbicidal rate of 40% or more and less than 70%) |

Source: patent publication US20230085307A1, “PYRIDAZINONE COMPOUND AND HERBICIDE” (NISSAN CHEMICAL CORPORATION, priority 2019, published 2023)
